Reference: patent US20050197364A1, “Amide compounds as ion channel ligands and uses thereof” (priority 2003, published 2005)

System: VR1 receptor
Assay: High throughput calcium imaging assay (Fura2, Flex Station) of VR1 antagonists, pH 5.1 stimulus
Assay type: cell-based
Conditions: 1 uM compound; inhibition of calcium ion influx induced by capsaicin stimulation
Method: Therefore the functional activity of compounds at the VR1 receptor may be determined by measuring changes in intracellular calcium levels in 293 cells expressing capsaicin-insensitive VR1 receptor variants. A dual wavelength ratiometric dye, Fura2, was used as an indicator of relative levels of calcium ions in a 96 well format using a bench top scanning fluorometer with integrated fluidics and temperature control (Flex Station, Molecular Devices).
293 cells were grown on PDL coated 96-well black-walled plates, in the presence of a DMEM medium containing 5% Penstrep, 5% Glutamax, 200 ug/mL Hygromycin, 5 μg/mL Blasticide and 10% heat inactivated FBS. Prior to assay, the cells were loaded with 5 μg/mL Fura2 in normal saline solution at 37° C. for 40 minutes. Cells were then washed with normal saline to remove the dye.
The assay consists of two stages; a pre-treatment phase followed by a treatment phase.
50 μl of a compound solution was added to the cells (Pre-treatment). Immediately following, 50 μl of the test compound in a saline solution at pH 5.1 was added. Fura2 was excited at 340 and 380 nM to indicate relative calcium concentration. Changes in wavelength measurements were made throughout the course of the experiment in 4 second intervals over a period of 3 minutes. Responses were measured as peak fluorescence ratio after test compound addition minus baseline fluorescence ratio prior to pre-treatment and were calculated using SoftMaxPro softwareData were expressed as percentage inhibition calculated using Excel as follows: [formula]

Row | SMILES | % Inhibition @ 1 uM
1 | CC(C)c1ccc(NC(=O)c2ccc(-c3ncccc3Cl)cc2)cc1 [Compound 25] | + + + + (compound exhibited 75% or greater inhibition of calcium ion influx induced by capsaicin stimulation)
2 | CCOc1cccc(NC(=O)c2ccc(-c3ncccc3Cl)cn2)c1 [Compound 347] | + + + + (“+ + + +” compound exhibited 75% or greater inhibition of calcium ion influx induced by capsaicin stimulation.)
3 | O=C(Nc1ccccc1Cl)c1ccc(-c2ncccc2Cl)cn1 [Compound 297] | + + + + (“+ + + +” compound exhibited 75% or greater inhibition of calcium ion influx induced by capsaicin stimulation.)
4 | COc1cc(C(=O)Nc2cccc(OC(F)(F)F)c2)ccc1-c1ncccc1Cl [Compound 252] | + (“+” compound exhibited 0-25% inhibition of calcium ion influx induced by capsaicin stimulation.)
5 | COc1cc(C(=O)Nc2ccc3cn[nH]c3c2)ccc1-c1ncccc1Cl [Compound 247] | + + (“+ +” compound exhibited 25-50% inhibition of calcium ion influx induced by capsaicin stimulation.)
6 | CCCOc1ccc(NC(=O)c2ccc(-c3ncccc3Cl)cc2)cc1 [Compound 274] | + (“+” compound exhibited 0-25% inhibition of calcium ion influx induced by capsaicin stimulation.)
7 | CC(C)(C)c1ccc(NC(=O)c2ccc(-c3ncccc3Cl)c(F)c2)cc1 [Compound 125] | + + + + (compound exhibited 75% or greater inhibition of calcium ion influx induced by capsaicin stimulation)
8 | COc1ccc(NC(=O)c2ccc(-c3ncccc3Cl)c(OC)c2)cc1Cl [Compound 212] | + + + (“+ + +” compound exhibited 50-75% inhibition of calcium ion influx induced by capsaicin stimulation.)
9 | O=C(Nc1ccc(C2CCCCC2)cc1)c1ccc(-c2ncccc2Cl)cc1 [Compound 27] | + + + + (compound exhibited 75% or greater inhibition of calcium ion influx induced by capsaicin stimulation)
10 | O=C(Nc1ccc2c(c1)OCO2)c1ccc(-c2ncccc2Cl)cc1 [Compound 34] | + (compound exhibited 0-25% inhibition of calcium ion influx induced by capsaicin stimulation)
11 | COc1cc(C(=O)Nc2ccccc2)ccc1-c1ncccc1Cl [Compound 189] | + (compound exhibited 0-25% inhibition of calcium ion influx induced by capsaicin stimulation)
12 | CC(C)(CO)NC(=O)c1ccc(-c2ncccc2Cl)cc1 [Compound 41] | + (compound exhibited 0-25% inhibition of calcium ion influx induced by capsaicin stimulation)
13 | O=C(Nc1ccc(C(F)(F)F)cn1)c1ccc(-c2ncccc2Cl)cc1F [Compound 97] | + (compound exhibited 0-25% inhibition of calcium ion influx induced by capsaicin stimulation)
14 | COc1cc(C(=O)Nc2cccc(OC(C)C)c2)ccc1-c1ncccc1Cl [Compound 253] | + (“+” compound exhibited 0-25% inhibition of calcium ion influx induced by capsaicin stimulation.)
15 | O=C(Nc1ccc([N+](=O)[O-])cc1)c1ccc(-c2ncccc2Cl)cc1 [Compound 56] | + + + + (compound exhibited 75% or greater inhibition of calcium ion influx induced by capsaicin stimulation)
16 | O=C(Nc1ccc(OC(F)(F)F)cc1)c1ccc(-c2ncccc2Cl)cc1 [Compound 276] | + (“+” compound exhibited 0-25% inhibition of calcium ion influx induced by capsaicin stimulation.)
17 | O=C(Nc1ccc2ccccc2c1)c1ccc(-c2ncccc2Cl)cn1 [Compound 331] | + + (“+ +” compound exhibited 25-50% inhibition of calcium ion influx induced by capsaicin stimulation.)
18 | COc1cc(C(=O)Nc2ccc(F)cc2[N+](=O)[O-])ccc1-c1ncccc1Cl [Compound 210] | + + + + (“+ + + +” compound exhibited 75% or greater inhibition of calcium ion influx induced by capsaicin stimulation.)
19 | COc1cc(C(=O)Nc2ccc(OC)c(C(F)(F)F)c2)ccc1-c1ncccc1Cl [Compound 258] | + + (“+ +” compound exhibited 25-50% inhibition of calcium ion influx induced by capsaicin stimulation.)
20 | COc1ccc(NC(=O)c2ccc(-c3ncccc3Cl)cc2)cc1 [Compound 5] | + + (compound exhibited 25-50% inhibition of calcium ion influx induced by capsaicin stimulation)
21 | COc1cc(C(=O)Nc2ccccc2C#N)ccc1-c1ncccc1Cl [Compound 192] | + (compound exhibited 0-25% inhibition of calcium ion influx induced by capsaicin stimulation)
22 | CC(C)Oc1cccc(NC(=O)c2ccc(-c3ncccc3Cl)cc2)c1 [Compound 278] | + (“+” compound exhibited 0-25% inhibition of calcium ion influx induced by capsaicin stimulation.)
23 | O=C(Nc1cccc(Cl)c1)c1ccc(-c2ncccc2Cl)cc1F [Compound 71] | + (compound exhibited 0-25% inhibition of calcium ion influx induced by capsaicin stimulation)
24 | O=C(Nc1cccnc1Cl)c1ccc(-c2ncccc2Cl)cc1F [Compound 101] | + (compound exhibited 0-25% inhibition of calcium ion influx induced by capsaicin stimulation)
25 | COc1ccccc1NC(=O)c1ccc(-c2ncccc2Cl)cc1 [Compound 13] | + + + + (compound exhibited 75% or greater inhibition of calcium ion influx induced by capsaicin stimulation)
26 | CCCOc1ccc(NC(=O)c2ccc(-c3ncccc3Cl)cn2)cc1 [Compound 341] | + (“+” compound exhibited 0-25% inhibition of calcium ion influx induced by capsaicin stimulation.)

Row | SMILES | % Inhibition @ 1 uM
27 | CCCOc1ccc(NC(=O)c2ccc(-c3ncccc3Cl)c(F)c2)cc1 [Compound 173] | + + (compound exhibited 25-50% inhibition of calcium ion influx induced by capsaicin stimulation)
28 | CCOC(=O)c1ccc(NC(=O)c2ccc(-c3ncccc3Cl)cn2)cc1 [Compound 333] | + (“+” compound exhibited 0-25% inhibition of calcium ion influx induced by capsaicin stimulation.)
29 | COc1cc(C(=O)Nc2ccc3ncccc3c2)ccc1-c1ncccc1Cl [Compound 233] | + + + + (“+ + + +” compound exhibited 75% or greater inhibition of calcium ion influx induced by capsaicin stimulation.)
30 | COc1cc(C(=O)Nc2ccnc(Cl)c2)ccc1-c1ncccc1Cl [Compound 231] | + (“+” compound exhibited 0-25% inhibition of calcium ion influx induced by capsaicin stimulation.)
31 | O=C(Nc1ccncc1)c1ccc(-c2ncccc2Cl)c(F)c1 [Compound 140] | + + + + (compound exhibited 75% or greater inhibition of calcium ion influx induced by capsaicin stimulation)
32 | O=C(Nc1cccc(OC(F)(F)F)c1)c1ccc(-c2ncccc2Cl)c(F)c1 [Compound 176] | + (compound exhibited 0-25% inhibition of calcium ion influx induced by capsaicin stimulation)
33 | COc1cc(C(=O)Nc2ccc(-c3cnc[nH]3)cc2)ccc1-c1ncccc1Cl [Compound 260] | + + + (“+ + +” compound exhibited 50-75% inhibition of calcium ion influx induced by capsaicin stimulation.)
34 | CCn1c2ccccc2c2cc(NC(=O)c3ccc(-c4ncccc4Cl)cn3)ccc21 [Compound 328] | + + + + (“+ + + +” compound exhibited 75% or greater inhibition of calcium ion influx induced by capsaicin stimulation.)
35 | COc1cc(C(=O)Nc2cc(C)cc(C)n2)ccc1-c1ncccc1Cl [Compound 217] | + (“+” compound exhibited 0-25% inhibition of calcium ion influx induced by capsaicin stimulation.)
36 | COc1cc(C(=O)Nc2nccs2)ccc1-c1ncccc1Cl [Compound 235] | + (“+” compound exhibited 0-25% inhibition of calcium ion influx induced by capsaicin stimulation.)
37 | O=C(Nc1ccccc1CCO)c1ccc(-c2ncccc2Cl)cc1 [Compound 23] | + + + (compound exhibited 50-75% inhibition of calcium ion influx induced by capsaicin stimulation)
38 | COc1ccccc1NC(=O)c1ccc(-c2ncccc2Cl)c(OC)c1 [Compound 194] | + + (compound exhibited 25-50% inhibition of calcium ion influx induced by capsaicin stimulation)
39 | COc1ccc(NC(=O)c2ccc(-c3ncccc3Cl)cn2)cn1 [Compound 324] | + + (“+ +” compound exhibited 25-50% inhibition of calcium ion influx induced by capsaicin stimulation.)
40 | COc1ccc(NC(=O)c2ccc(-c3ncccc3Cl)c(F)c2)cc1O [Compound 170] | + + (compound exhibited 25-50% inhibition of calcium ion influx induced by capsaicin stimulation)
41 | O=C(Nc1ncc(C(F)(F)F)cc1Cl)c1ccc(-c2ncccc2Cl)cc1F [Compound 98] | + (compound exhibited 0-25% inhibition of calcium ion influx induced by capsaicin stimulation)
42 | O=C(Nc1ccc(F)cc1)c1ccc(-c2ncccc2Cl)c(F)c1 [Compound 114] | + (compound exhibited 0-25% inhibition of calcium ion influx induced by capsaicin stimulation)
43 | CCC(C)(C)NC(=O)c1ccc(-c2ncccc2Cl)cc1 [Compound 53] | + (compound exhibited 0-25% inhibition of calcium ion influx induced by capsaicin stimulation)
44 | O=C(Nc1cccc(Br)c1)c1ccc(-c2ncccc2Cl)cc1 [Compound 21] | + (compound exhibited 0-25% inhibition of calcium ion influx induced by capsaicin stimulation)
45 | O=C(Nc1ccc(Cl)nc1)c1ccc(-c2ncccc2Cl)c(F)c1 [Compound 152] | + (compound exhibited 0-25% inhibition of calcium ion influx induced by capsaicin stimulation)
46 | COc1ccc(NC(=O)c2ccc(-c3ncccc3Cl)cc2F)cc1Cl [Compound 79] | + + (compound exhibited 25-50% inhibition of calcium ion influx induced by capsaicin stimulation)
47 | CCN(CC)CCOC(=O)c1ccc(NC(=O)c2ccc(-c3ncccc3Cl)cc2)cc1 [Compound 265] | + (“+” compound exhibited 0-25% inhibition of calcium ion influx induced by capsaicin stimulation.)
48 | O=C(Nc1ccc(F)c(F)c1)c1ccc(-c2ncccc2Cl)cn1 [Compound 346] | + + + + (“+ + + +” compound exhibited 75% or greater inhibition of calcium ion influx induced by capsaicin stimulation.)
49 | O=C(Nc1ccc(Cl)c(C(F)(F)F)c1)c1ccc(-c2ncccc2Cl)cc1 [Compound 20] | + + + (compound exhibited 50-75% inhibition of calcium ion influx induced by capsaicin stimulation)
50 | COc1ccc(NC(=O)c2ccc(-c3ncccc3Cl)c(F)c2)cn1 [Compound 153] | + + (compound exhibited 25-50% inhibition of calcium ion influx induced by capsaicin stimulation)
51 | COc1cc(C(=O)NC(C)(C)C)ccc1-c1ncccc1Cl [Compound 187] | + (compound exhibited 0-25% inhibition of calcium ion influx induced by capsaicin stimulation)
